In US10414797B2, “Gelatinase inhibitors and use thereof” (Iproteos S.L, priority 2015, dated 2019):
Where a SMILES comes first, the peptide text is derived from it. [ ]: non-standard residue; d: D form. The star is where a group is joined. ξ: configuration not given here. NMeW = CN[C@@H](Cc1c[nH]c2ccccc12)C(=O)O; Benzoyl(3,5-F2) = O=C(c1cc(F)cc(F)c1)*; NMeIle(3ξ) = CCC(C)[C@H](NC)C(=O)O; NMeF = CN[C@@H](Cc1ccccc1)C(=O)O; NMeQ = CN[C@@H](CCC(N)=O)C(=O)O; NMeL = CN[C@@H](CC(C)C)C(=O)O; NMeA = CN[C@@H](C)C(=O)O; Dab = NCC[C@H](N)C(=O)O; Hexanoyl = CCCCCC(=O)*; Butyryl = CCCC(=O)*; Bz = O=C(c1ccccc1)*; NHOH = ON*

What was measured:
[1] = Parallel artificial membrane permeability assay (PAMPA), Blood-Brain Barrier; assay type: in vitro ADME; details: initial concentration 200 μM, pH 7.4, 4 hours; for Papp at 4 h, 200 µM: pig, read-out: Effective permeability Pe
Protocol: Parallel Artificial Membrane Permeability Assay (PAMPA)
Parallel artificial membrane permeability assay (PAMPA) described in Kansy et al., J. M. Chem. 1998; 41(7):1007-10 was used here to determine the capacity of compounds to cross the Blood-Brain Barrier (BBB) by passive diffusion (Di L et al., Eur. J. Med. Chem. 2003; 38(3):223-32). The effective permeability (Pe) of the compounds was measured at an initial concentration of 200 μM. The buffer solution was prepared from a commercial concentrated one following the manufacturer's instructions. pH was adjusted to 7.4 using a 0.5 M NaOH solution. A stock solution of new compound was prepared in DMSO and diluted with buffer solution to a final 200 μM concentration (0.5% DMSO content). The PAMPA sandwich was separated and each donor well was filled with […] of the compound solution. The acceptor plate was placed into the donor plate, ensuring that the underside of the membrane was in contact with buffer. 4 μL of the mixture of phospholipids (20 mg/ml) in dodecane was added to the filter of each well, and 200 μL of buffer solution was added to the each acceptor well. The plate was covered and incubated at room temperature in a saturated humidity atmosphere for 4 hours under orbital agitation at 100 rpm. After 4 hours, the contents of the acceptor and donor compartments were analyzed by HPLC: 150 μL of each well from the donor plate and 150 μL of each well from the acceptor plate were transferred to HPLC vials, injecting each sample into a reverse-phase C18 column (150 mm×4.6 mm×5 μm, 100 Å) (100 μL/injection from the acceptor wells, 10 μL/injection from the donor wells and for t0 references). Transport was also confirmed using mass spectrometry (MALDI-TOF).
The phospholipid mixture used was a porcine polar brain lipid extract, provided by Avanti polar lipids, with the following composition: 12.6% phosphatidylcholine (PC), 33.1% phosphatidylethanolamine (PE), 18.5% phosphatidylserine (PS), 4.1% phosphatidylinositol (PI), 0.8% phosphatidic acid and 30.9% of other compounds.
The effective permeability (Pe) after 4 hours was calculated using equation 2 and the percentage of transport (T %) was calculated using equation 3: […]
Ca(t) is the compound concentration in the acceptor well at time t
And Cd(t0) is the compound concentration in the donor well at t0.

MMP-7 = MMP-7 (Homo sapiens (Human), UniProt P09237); assay: MMP-7 inhibition assay (fluorogenic peptide substrate); assay type: biochemical; details: recombinant MMP-7 8.3 nM, Mca-PLGL-Dpa-AR-NH2 10 μM, 4 hours at room temperature; tested at 1, 10, 100 and 200 μM
Protocol: All the experiments were done in 1× reaction buffer, which was obtained from a 10× reaction buffer solution. The content of the 10× reaction buffer was: 50 mL of 0.5 M Tris-HCl, 1.5 M NaCl, 50 mM CaCl2 and 2 mM sodium azide at pH 7.6. To obtain the 1× reaction buffer 4 mL of the 10× reaction buffer were diluted in 36 mL of H2O.
Recombinant MMP-7 expressed in E. Coli was obtained from Merck-Millipore (catalog number 44270). Mca-PLGL-Dpa-AR-NH2 (fluorogenic peptide substrate) was obtained from R&D Systems (catalog number ES001).
Preparation of the MMP-7 for the activity assay: MMP-7 was provided as a stock solution (2.1 mg/mL). The enzyme was diluted in water to a final concentration of 0.005 mg/mL.
MMP-7 peptide substrate was provided as a solid (1 mg). A 4 mM stock solution of the substrate in DMSO was obtained by adding 214.7 μL of DMSO. After which, a 100 μM solution of substrate was prepared in 1× reaction buffer.
Procedure: The enzymatic assays were performed in 96-well microtiter plate, which allowed simultaneous monitoring of multiple reactions. For each reaction, 84.6 μL of 1× reaction buffer (pH 7.6), 3.4 μL of MMP-7 (final concentration 8.3 nM) and 2 μL of the corresponding new compound were added to each well. A stock solution of new compound was prepared in DMSO (100 mM), and dilutions were prepared from this stock solution with DMSO. Finally, to the mixture contained in each well 10 μL of the substrate were added (final concentration 10 μM). The reaction was incubated for 4 hours at room temperature in an orbital shaker (90 rpm).
The inhibitory activity of the new compound was measured fluorimetrically. The excitation and emission wavelengths were 320 and 405 nm, respectively.
Inhibitory activity at several concentration points (1, 10, 100 and 200 μM) were measured for each compound. The inhibitory activity on MMP-1, MMP-3 and MMP-7 was calculated according to eq 1 and The IC50 value was calculated as explained above for MMP-2 and MMP-9.

Sequence of MMP-7 (P09237 95-267): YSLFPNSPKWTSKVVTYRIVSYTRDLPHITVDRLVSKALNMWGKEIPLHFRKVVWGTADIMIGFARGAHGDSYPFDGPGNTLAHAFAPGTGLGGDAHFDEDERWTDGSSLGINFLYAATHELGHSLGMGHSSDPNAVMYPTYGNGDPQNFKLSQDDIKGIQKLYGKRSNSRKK

Row | SMILES | percentage of transport % T [1] [%] | Papp at 4 h, 200 µM [1] [×10⁻⁶ cm/s] | IC50 (MMP-7) [µM]
1 | CCCCCC(=O)N1CCC[C@H]1C(=O)N(C)[C@H](C(=O)N[C@@H](CCNC(=O)c1ccccc1)C(=O)NO)C(C)CC (stereo partly drawn) [Example 15, (2S)—N-[(1S)-1-[[(1S)-3-benzamido-1-(hydroxycarbamoyl)propyl]carbamoyl]-2-methyl-butyl]-N-methyl-1-hexanoyl-pyrrolidine-2-carboxamide] (Hexanoyl-Pro-[NMeIle(3ξ)]-[Dab](Bz)-{NHOH}) | 2.3 | 1.1 | 41.2
2 | CCC(C)[C@@H](C(=O)N[C@@H](CCNC(=O)c1cc(F)cc(F)c1)C(=O)NO)N(C)C(=O)[C@@H]1CCCN1C(=O)CCN(C)C(C)=O (stereo partly drawn) [Example 13, (2S)-1-[3-[acetyl(methyl)amino]propanoyl]-N-[(1S)-1-[[(1S)-3-[(3,5-difluorobenzoyl)amino]-1-(hydroxycarbamoyl)propyl]carbamoyl]-2-methyl-butyl]-N-methyl-pyrrolidine-2-carboxamide] | – | – | 50.4
3 | CC(=O)N1CCC[C@H]1C(=O)N[C@@H](CCC(N)=O)C(=O)N[C@@H](Cc1c[nH]c2ccccc12)C(=O)NO [Example C17, (2S)-2-[[(2S)-1-acetylpyrrolidine-2-carbonyl)amino]-N-[(1S)-2-(hydroxyamino)-1-(1H-indol-3-ylmethyl)-2-oxo-ethyl]pentanediamide, reference compound] (Ac-Pro-Gln-Trp-{NHOH}) | – | – | > 2000
4 | CCC(C)[C@@H](C(=O)N[C@@H](CCNC(=O)c1ccc(F)cc1)C(=O)NO)N(C)C(=O)[C@@H]1CCCN1C(C)=O (stereo partly drawn) [Example 1, (2S)-1-acetyl-N-[(1S)-1-[[(1S)-3-[(4-fluorobenzoyl)amino]-1-(hydroxycarbamoyl)propyl]carbamoyl]-2-methyl-butyl]-N-methyl-pyrrolidine-2-carboxamide] | 0.4 | 0.094 | 23
5 | CCCC(=O)N(C)[C@@H](Cc1c[nH]c2ccccc12)C(=O)N(C)[C@@H](CC(C)C)C(=O)N1CCC[C@H]1C(=O)N(C)[C@H](C(=O)N[C@@H](CCNC(=O)c1cc(F)cc(F)c1)C(=O)NO)C(C)CC (stereo partly drawn) [Example 14, (2S)-1-[(2S)-2-[[(2S)-2-[butanoyl(methyl)amino]-3-(1H-indol-3-yl)propanoyl]-methyl-amino]-4-methyl-pentanoyl]-N-[(1S)-1-[[(1S)-3-[(3,5-difluorobenzoyl)amino]-1-(hydroxycarbamoyl)propyl]carbamoyl]-2-methyl-butyl]-N-methyl-pyrrolidine-2-carboxamide] (Butyryl-[NMeW][NMeL]P[NMeIle(3ξ)][Dab](Benzoyl(3,5-F2))-{NHOH}) | – | – | 61
6 | CCC(C)[C@@H](C(=O)N[C@@H](CCNC(=O)c1cc(F)cc(F)c1)C(=O)NO)N(C)C(=O)[C@@H]1CCCN1C(=O)[C@H](Cc1ccccc1)N(C)C(C)=O (stereo partly drawn) [Example 11, (2 S)-1-[(2S)-2-[acetyl(methyl)amino]-3-phenyl-propanoyl]-N-[(1S)-1-[[(1S)-3-[(3,5-difluorobenzoyl)amino]-1-(hydroxycarbamoyl)propyl]carbamoyl]-2-methyl-butyl]-N-methyl-pyrrolidine-2-carboxamide] (Ac-[NMeF]P[NMeIle(3ξ)][Dab](Benzoyl(3,5-F2))-{NHOH}) | – | – | 20.1
7 | CC(=O)N1CCC[C@H]1C(=O)N(C)[C@@H](CCC(N)=O)C(=O)N[C@@H](Cc1c[nH]c2ccccc12)C(=O)NO [Example C20, (2S)-2-[[(2S)-1-acetylpyrrolidine-2-carbonyl]-methyl-amino]-N-[(1S)-2-(hydroxyamino)-1-(1H-indol-3-ylmethyl)-2-oxo-ethyl]pentanediamide, reference compound] (Ac-Pro-[NMeQ]-Trp-{NHOH}) | – | – | > 2000
8 | CCC(C)[C@@H](C(=O)N[C@@H](CCNC(=O)c1cc(F)cc(F)c1)C(=O)NO)N(C)C(=O)[C@@H]1CCCN1C(=O)[C@H](C)N(C)C(C)=O (stereo partly drawn) [Example 12, (2 S)-1-[(2S)-2-[acetyl(methyl)amino]propanoyl]-N-[(1S)-1-[[(1S)-3-[(3,5-difluorobenzoyl)amino]-1-(hydroxycarbamoyl)propyl]carbamoyl]-2-methyl-butyl]-N-methyl-pyrrolidine-2-carboxamide] (Ac-[NMeA]P[NMeIle(3ξ)][Dab](Benzoyl(3,5-F2))-{NHOH}) | – | – | 14.1
9 | CCC(C)[C@@H](C(=O)N[C@@H](CCNC(=O)c1cc(F)cc(F)c1)C(=O)NO)N(C)C(=O)[C@@H]1CCCN1C(C)=O (stereo partly drawn) [Example 2, (2S)-1-acetyl-N-[(1S)-1-[[(1S)-3-[(3,5-difluorobenzoyl)amino]-1-(hydroxycarbamoyl)propyl]carbamoyl]-2-methyl-butyl]-N-methyl-pyrrolidine-2-carboxamide] | 0.8 | 0.2 | 31.4

The next molecules have a lower IC50 (MMP-7) than those just listed; values first:

Row | percentage of transport % T [1] [%] | Papp at 4 h, 200 µM [1] [×10⁻⁶ cm/s] | IC50 (MMP-7) [µM] | SMILES
10 | 19.0 | 11.3 | 7.71 | CCCCCC(=O)N1CC(F)(F)C[C@H]1C(=O)N(C)[C@H](C(=O)N[C@@H](CCNC(=O)c1cc(F)cc(F)c1)C(=O)NO)C(C)CC (stereo partly drawn) [Example 7, (2S)—N-[(1S)-1-[[(1S)-3-[(3,5-difluorobenzoyl)amino]-1-(hydroxycarbamoyl)propyl]carbamoyl]-2-methyl-butyl]-4,4-difluoro-1-hexanoyl-N-methyl-pyrrolidine-2-carboxamide]
11 | 13.6 | 7.6 | 8.08 | CCC(C)[C@@H](C(=O)N[C@@H](CCNC(=O)c1cc(F)cc(F)c1)C(=O)NO)N(C)C(=O)[C@@H]1CC(F)(F)CN1C(=O)CCCOc1ccccc1 (stereo partly drawn) [Example 10, (2S)—N-[(1S)-1-[[(1S)-3-[(3,5-difluorobenzoyl)amino]-1-(hydroxycarbamoyl)propyl]carbamoyl]-2-methyl-butyl]-4,4-difluoro-N-methyl-1-(4-phenoxybutanoyl)pyrrolidine-2-carboxamide]
12 | 9.3 | 2.3 | 6.61 | CCCCCC(=O)N1CCC[C@H]1C(=O)N(C)[C@H](C(=O)N[C@@H](CCNC(=O)c1cc(F)cc(F)c1)C(=O)NO)C(C)CC (stereo partly drawn) [Example 3, (2S)—N-[(1S)-1-[[(1S)-3-[(3,5-difluorobenzoyl)amino]-1-(hydroxycarbamoyl)propyl]carbamoyl]-2-methyl-butyl]-1-hexanoyl-N-methyl-pyrrolidine-2-carboxamide]
13 | 3.1 | 0.74 | 4.42 | CCCC(=O)N1CCC[C@H]1C(=O)N(C)[C@H](C(=O)N[C@@H](CCNC(=O)c1cc(F)cc(F)c1)C(=O)NO)C(C)CC (stereo partly drawn) [Example 4, (2S)-1-butanoyl-N-[(1S)-1-[[(1S)-3-[(3,5-difluorobenzoyl)amino]-1-(hydroxycarbamoyl)propyl]carbamoyl]-2-methyl-butyl]-N-methyl-pyrrolidine-2-carboxamide]
14 | 7.6 | 1.9 | 3.48 | CCC(C)[C@@H](C(=O)N[C@@H](CCNC(=O)c1cc(F)cc(F)c1)C(=O)NO)N(C)C(=O)[C@@H]1CCCN1C(=O)CC(C)C (stereo partly drawn) [Example 5, (2S)—N-[(1S)-1-[[(1S)-3-[(3,5-difluorobenzoyl)amino]-1-(hydroxycarbamoyl)propyl]carbamoyl]-2-methyl-butyl]-N-methyl-1-(3-methylbutanoyl)pyrrolidine-2-carboxamide]
